Test results from publication PMC8067754, “Active Transport of Hepatotoxic Pyrrolizidine Alkaloids in HepaRG Cells” (International Journal of Molecular Sciences, 2021).
Where “and” joins values, the source holds several entries; their conditions need not be identical. Identical values can stand only once.

Test system: HepaRG cells
Experiment: Time-dependent PA depletion and PANO formation in cell culture medium of HepaRG cells at 37 °C and 4 °C (LC-MS/MS)
Conditions: for PA content in cell culture medium, Mean [%]: 700 nM PA, percent of initial PA concentration; for uptake and toxicity (grading): Figure 2a, toxicity grading with ref 41
Procedure: In order to measure time-dependent depletion of PA and PANO content in cell culture medium, cells were seeded at a density of 0.2 × 10^6 cells per well in a 6-well plate and cultivated as described in Section 4.2. After four weeks of cultivation, cells were adapted to serum-free medium and medium substituted with insulin, transferrin, selenium (ITS) serum extender (Capricorn Scientific, Ebsdorfergrund, Germany) 48 h prior to PA incubation for optimal LC-MS/MS measurements. […] Samples were taken after 2 h, 4 h, 8 h and 24 h.
Briefly, chromatographic separation of PA/PANO analytes was achieved on a 50 × 2.1 mm Kinetex ™ 2.6 μm CoreShell EVO C18 100 Å column protected by a SecurityGuard ™ ULTRA EVO C 18 2.1 mm guard column (both Phenomenex, Aschaffenburg, Germany) at a flow rate of 0.4 mL/min on a Shimadzu high performance liquid chromatography (HPLC) apparatus (LC-20AB, SIL-20AC HT, CTO-20AC, CBM-20A, Duisburg, Germany) coupled to an API4000 triple quadrupole MS (Sciex, Darmstadt, Germany). The following MS parameters were used for measurements in positive electrospray ionisation (ESI+) mode: ionisation voltage 2500 V, nebuliser gas 50 psi, heating gas 50 psi, curtain gas 30 psi, temperature 600 °C, collision gas level 7. The substance specific parameters are summarized in Kaltner et al. 2019 [79].

SMILES	PA content in cell culture medium, Mean [%] (HepaRG, 4 °C (cold), 4h)	PA content in cell culture medium, Mean [%] (HepaRG, 4 °C (cold), 24h)	PA content in cell culture medium, Mean [%] (HepaRG, 37 °C (warm), 2h)	PA content in cell culture medium, Mean [%] (HepaRG, 37 °C (warm), 4h)	PA content in cell culture medium, Mean [%] (HepaRG, 37 °C (warm), 8h)	PA content in cell culture medium, Mean [%] (HepaRG, 37 °C (warm), 24h)	uptake and toxicity (grading) (HepaRG)	PA in medium, Mean [%] (cold, 0h)	PA in medium, single replicates (repl.) (cold, 0h)	PA in medium, single replicates (repl.) (cold, 2h)	PA in medium, Mean [%] (cold, 4h)	PA in medium, single replicates (repl.) (cold, 4h)	PA in medium, Mean [%] (cold, 8h)	PA in medium, single replicates (repl.) (cold, 8h)	PA in medium, Mean [%] (cold, 24h)	PA in medium, single replicates (repl.) (cold, 24h)	PA in medium, Mean [%] (warm, 0h)	PA in medium, single replicates (repl.) (warm, 0h)	PA in medium, Mean [%] (warm, 2h)	PA in medium, single replicates (repl.) (warm, 2h)	other results
C/C=C(/C)C(=O)O[C@@H]1CCN2CC=C(COC(=O)[C@@](O)([C@H](C)O)C(C)(C)O)[C@H]12 [Echimidine, echimidine]	98.8433%	89.3074%	85.2823%	68.4318%	40.2531%	3.384%	medium	100%	100%	86.5736%	92.1476%	83.0216% and 84.3494%	94.8515%	82.9788% and 110.397%	82.2598%	57.2342% and 76.5517%	100%	100%	80.9264%	77.0539% and 95.3255%	PA in medium, Mean [%] (cold, 2h): 97.014%; PA in medium, Mean [%] (warm, 4h): 64.0995%; PA in medium, single replicates (repl.) (warm, 4h): 50.2783% and 58.3297% and 83.6904%; PA in medium, Mean [%] (warm, 8h): 36.9411%; PA in medium, single replicates (repl.) (warm, 8h): 23.0433% and 32.0944% and 55.6854%; PA in medium, Mean [%] (warm, 24h): 2.921%; PA in medium, single replicates (repl.) (warm, 24h): 0.7358% and 1.728% and 6.298%
C/C=C(/C)C(=O)O[C@H]1CCN2CC=C(COC(=O)[C@@](O)([C@@H](C)O)C(C)(C)O)[C@H]12 [Heliosupine, heliosupine]	87.9748%	78.8823%	59.8398%	37.2399%	12.933%	0.2071%	strong	100%	100%	95.0989% and 96.7114%	98.142%	94.7313% and 89.2662% and 110.429%	98.6729%	94.1093%	85.6503%	84.4985% and 86.6382%	100%	100%	66.3099%	44.4302% and 65.8608% and 88.6387%	PA content in cell culture medium, Mean [%] (HepaRG, 4 °C (cold), 2h): 91.4819%; PA content in cell culture medium, Mean [%] (HepaRG, 4 °C (cold), 8h): 89.7595%; PA content in cell culture medium, Mean [%] (HepaRG, 37 °C (warm), 0h): 95.6507%; reduction of PA content in the supernatant (HepaRG, 37 °C, after 24 h, 700 nM): highest decline; PA in medium, Mean [%] (warm, 4h): 41.9165%; PA in medium, single replicates (repl.) (warm, 4h): 27.0977% and 40.0579% and 58.5941%; PA in medium, Mean [%] (warm, 8h): 15.145%; PA in medium, single replicates (repl.) (warm, 8h): 8.52% and 13.2978% and 23.6169%; PA in medium, Mean [%] (warm, 24h): 0.2418%; PA in medium, single replicates (repl.) (warm, 24h): 0.3741% and 0.0766% and 0.2748%
